# Read-outs that look alike come from different tables or passages of the source.
# Key:
# [1] = tested on: MSH3-deficient cells; experiment: Sensitivity of MSH3-deficient cells to SN-38 (data not shown); format: cell-based
# [2] = tested on: HCT116, HCT116+3, HCT116+3+5, G1, G2 and G5 cells; experiment: Clonogenic survival assay in isogenic HCT116-derived cell lines; format: cell-based, human
# Experimental: (§1) Cell lines and cell culture—The human colon cancer cell lines HCT116, HCT116+ch.3 (HCT116+3), HCT116+ch.3+ch.5 (HCT116+3+5) have been described previously (10,23). HCT116+3+5 cells were stably transfected with a tetracycline-regulated retroviral vector, the TMP (Open Biosystems, Huntsville, Ala.) that encodes shRNA against MSH3. Stable MSH3-deficient clones G1, G2 and G5 were isolated (see results and (23)). HCT116, HCT116+3, and HCT116+3+5 cells were grown in IMDM (Invitrogen, Rockville, Md.) with 10% fetal bovine serum. The G1, G2 and G5 cells were maintained in IMDM with 10% fetal bovine serum and 0.6 μg/ml of puromycin. To turn off the expression of MSH3 shRNA, 1 μg/ml of doxycycline was added to the culture medium.
# Clonogenic survival assay—Two hundred cells were seeded in each well of a six-well plate. For the measurement of the cytotoxicity caused by cisplatin or oxaliplatin, the cells were treated with the drugs for 24 hours once the cells were attached to the plate. For the measurement of the cytotoxicity caused by olaparib, cells were continuously treated with the drug during the experiments. After 8-10 days, the number of colonies (colonies with >50 cells) were counted, and the relative change in clonogenic survival of drug-treated versus untreated cells was determined.
# [3] = tested on: HCT116+3+5 cells; experiment: Clonogenic survival after transient MSH3 siRNA transfection; format: cell-based, human; conditions: MSH3 siRNA versus non-targeted siRNA; cisplatin 5 μM and 10 μM, oxaliplatin 2 μM and 5 μM, 48 hours after transfection; FIGS. 3B & 3C
# [4] = tested on: HT29 cells; experiment: as above; format: cell-based, human; conditions: HT29 cells treated with MSH3 siRNA versus non-targeted siRNA; FIGS. 3E & 3F
# [5] = tested on: HCT116+3+5 and G5 cells; experiment: Clonogenic survival after MLH1 siRNA transfection; format: cell-based, human
# [6] = tested on: HHUA cells; conditions: MSH3-deficient HHUA versus MSH3-proficient HHUA complemented with chromosome 5; cited from earlier work
# [7] = tested on: tumors occurring in MSH2-null mice; conditions: MSH2-null mice versus mice with MSH2 G674D mutations; cited from earlier work
# [8] = tested on: MSH3; experiment: Western blot analysis of MSH3 expression; format: cell-based, human; conditions: G1, G2 and G5 clones; doxycycline 1 μg/ml; densitometry; FIGS. 1A & 1B
# Experimental: as §1
# Western blot analysis—Proteins from cell lysates were prepared, separated on the SDS-PAGE and transferred to PVDF membranes as described previously (31). Anti-hMSH3 mouse monoclonal antibody (dilution; 1:250, Clone 52, BD Pharmingen, San Jose, Calif.), anti-hMLH1 mouse monoclonal antibody (1:200, G168-728, BD Pharmingen) and anti-β-actin antibody (1:10000, Clone AC-15, Sigma-Aldrich) were used as primary antibodies for the detection of specific proteins. Goat anti-mouse antibody (1:3000, sc-2005, Santa Cruz Biotechnology, Santa Cruz, Calif.) was used as a secondary antibody. […]
# [9] = tested on: HCT116+3+5 and G1 cells; experiment: Cell cycle analysis by flow cytometry; format: cell-based, human; conditions: MSH3-deficient versus MSH3-proficient cells
# Experimental: Cell cycle analysis—One million cells were seeded in 10 cm plates. Once attached, the cell lines were treated with oxaliplatin for 24 hours. After an additional 48 hours, cells were washed twice with cold PBS, fixed in cold 70% ethanol at −20° C. overnight or for several days. The ethanol fixed cells (2×10^6) were subsequently washed with PBS twice and incubated with 300 μl of PBS and 0.15% RNase A for 15 minutes at 37° C. The cells were stained with 75 μg/ml propidium iodide for 30 minutes and then analyzed for DNA content using the FACSCantoII flow cytometer (BD Biosciences, San Jose, Calif.). Cell cycle data was analyzed by the Flowjo software (Tree Star, Ashland, Oreg.).
# [10] = tested on: HCT116+3+5 and G5 cells; experiment: Proliferation assay (BrdU incorporation); format: cell-based, human; conditions: MSH3-deficient cells; FIG. 2G
# Experimental: Proliferation assay—The proliferation index was measured by bromodeoxyuridine (BrdU) incorporation in HCT116+3+5 and G5 cells, 48 hours after the initial 24 hour treatment with cisplatin or oxaliplatin (Cell Proliferation ELISA, BrdU, Roche Diagnositics, Indianapolis, Ind.). Experiments were performed in triplicate and data was obtained from three or four independent experiments.
# [11] = tested on: HCT116+3+5 and G5 cells; experiment: Immunofluorescence staining for active caspase-3; format: cell-based, human; conditions: MSH3-deficient cells, FIG. 2H
# Experimental: (§2) Immunofluorescence staining—Ten thousand cells were grown on glass coverslips in a 12-well plate. The cells were fixed with 4% paraformaldehyde (pH 7.5) in PBS for 15 minutes, permeabilized with 0.3% Triton X-100 for five minutes, and then blocked with 10% goat serum (Invitrogen, Carlsbad, Calif.) for one hour. The cells were subsequently incubated with an anti-active caspase-3 antibody (1:500, G748, Promega, Madison, Wis.) an anti-phosphorylated H2AX (pH2AX) antibody (1:5000, JBW301, Millipore Corporation, Billerica, Mass.), or an anti-53BP1 antibody (1:600, ab21083, Abcam, Cambridge, Mass.) for one hour, followed by a secondary antibody (1:800, Alexa Fluor 555 goat anti-mouse or anti-rabbit antibody, Invitrogen) for 40 minutes. Prolong Gold with DAPI (Invitrogen) was used in mounting the medium. The images were obtained using AxioSkop2 multichannel epifluorescence microscope equipped with the AxioVision software (Carl Zeiss, Thornwood, N.Y.).
# [12] = tested on: pH2AX; experiment: Immunofluorescence staining for pH2AX foci; format: cell-based, human
# Experimental: as §2
# [13] = tested on: 53BP1; experiment: Immunofluorescence staining for 53BP1 foci; format: cell-based, human; conditions: MSH3-deficient G5 cells after treatment; 5 μM for 6 hours, analyzed after 48 hours; FIGS. 5C & 5D
# Experimental: as §2
smiles,measurement,setting,value
CCc1c2c(nc3ccc(O)cc13)-c1cc3c(c(=O)n1C2)COC(=O)[C@]3(O)CC [SN-38],sensitization by MSH3 deficiency,[1],sensitized
N.N.[Cl][Pt][Cl] [cisplatin],sensitivity (clonogenic survival),"[2]; G1 and G2 clones, data not shown",behaved similarly to G5
same,sensitivity (clonogenic survival) on restoration of MSH3 expression,"[2]; G5 cells with versus without doxycycline, 5 μM, FIG. 2B",desensitized
same,sensitivity (clonogenic survival),"[2]; HCT116 versus HCT116+3 cell lines, FIG. 2A",No significant differences
same,sensitivity (clonogenic survival),"[2]; MSH3-deficient G5 clone versus parental HCT116+3+5, FIG. 2A",more sensitive
same,resistance (clonogenic survival),"[2]; MSH3-proficient HCT116+3+5 versus HCT116 and HCT116+3, FIG. 2A",higher resistance
same,susceptibility (clonogenic survival),[3],more susceptible
same,sensitivity (clonogenic survival),[4],more sensitive
same,sensitivity (clonogenic survival),"[5]; G5 versus HCT116+3+5, MLH1 down-regulated by siRNA, 2 μM and 5 μM, FIGS. 4C & 4D",more sensitive
same,sensitivity,[6],did not differ
same,resistance of tumors,[7],more resistant
C[C@H]1c2cccc(O)c2C(=O)C2=C(O)[C@]3(O)C(=O)C(C(N)=O)=C(O)[C@@H](N(C)C)[C@@H]3[C@@H](O)[C@@H]21 [doxycycline],MSH3 expression relative to parental HCT116+3+5,[8],40-60%
O=C(c1cc(Cc2n[nH]c(=O)c3ccccc23)ccc1F)N1CCN(C(=O)C2CC2)CC1 [olaparib],sensitivity (clonogenic survival),"[2]; MSH3-deficient G5 versus MSH3-restored G5 cell line, 2 μM, FIG. 6A",more sensitive
O=C1[O][Pt]2([NH][C@@H]3CCCC[C@H]3[NH]2)[O]C1=O [oxaliplatin],sensitivity (clonogenic survival),"[2]; MSH3-deficient HCT116, HCT116+3 and G5 versus parental HCT116+3+5, FIG. 2C",significantly more sensitive
same,sensitivity (clonogenic survival) on restoration of MSH3,"[2]; MSH3-deficient cells (G1, G2, G5) with versus without doxycycline 1 μg/ml, FIG. 2D",restoration of oxaliplatin insensitivity
same,susceptibility (clonogenic survival),[3],more susceptible
same,sensitivity (clonogenic survival),[4],more sensitive
same,sensitivity (clonogenic survival),[5],more sensitive
same,degree of cell growth inhibition (decrease in S-phase population),[9]; FIG. 2E,significantly higher
same,levels of apoptosis (increase in sub-G1 population),[9]; FIG. 2F,significantly higher
same,cell proliferation (BrdU incorporation),[10],decreased
same,apoptotic fraction (anti-active caspase-3 positive cells),[11],increased
same,rate of reduction in the number of pH2AX foci-positive cells,"[12]; MSH3-deficient G5 versus MSH3-restored G5 and HCT116+3+5, 48 and 72 hours, FIGS. 5A & 5B",lower rate of reduction
same,number of pH2AX foci-positive cells before and after treatment,"[12]; MSH3-proficient versus -deficient cell lines, 5 μM for 6 hours",no differences
same,levels of 53BP1,[13],Sustained levels
same,sensitivity,[6],did not differ

# Reference: patent US20120207856A1, “MSH3 Expression Status Determines the Responsiveness of Cancer Cells to the Chemotherapeutic Treatment with PARP Inhibitors and Platinum Drugs” (Baylor Research Institute, priority 2011, published 2012)
